In data set [1] the test system is IRF3. The data set is described as follows: IRF3 expression at protein level during lentiviral transduction. It counts as cell-based. The conditions noted are these: for change in IRF3 expression at the protein level: after the 6 hour transduction period; for change in IRF3 expression: at 24 hours, FIG. 3. From the text:
(§1) FIG. 3 contains photos of a gel showing iX treatment during lentiviral transduction decreases RIG-I and IRF-3.

Data set [2] relates to NK cells. The following applies: cited from earlier work.
Data set [3] concerns NK cells. The data set is described as follows: Dose dependence of lentiviral transduction with LeGO-G2 virus, GFP+ cells by flow cytometry. It counts as cell-based, human. Here is the method:
Primary human NK cells and NK-92 cells are transduced with LeGO-G2 virus in the presence of varying doses of BX795 or iX for 6 hours. GFP expression is analyzed by flow cytometry 72 hours after transduction. GFP+ cell percentages are shown on graph. Data from three independent experiments, each run in triplicates.
For each lentiviral transduction, 0.25×10^6 NK cells per well were seeded in a 24-well plate (BD Biosciences) and mixed with an appropriate amount of virus supernatant in the presence of 8 μg/ml of protamine sulfate (Sigma-Aldrich) or polybrene (Sigma-Aldrich) in a final volume of no more than 1 ml. The cytokines were replenished and plates were centrifuged at 1000×g for 1 hour at room temperature. After centrifugation, without removing viral supernatants, the plates were incubated at 37° C., 5% CO2 for 4-6 hours. At the end of the incubation, a second centrifugation at 1000×g for 1 hour at room temperature was carried out, after which the supernatants were removed from the wells and 1 ml of fresh NK cell growth medium (CellGro SCGM supplemented with 10% Human AB Serum) per well was added. The cells were maintained in this medium with daily addition cytokines (IL-2: 1000 U/ml, and IL-21: 20 ng/ml. Combinations of cytokines were used as indicated in FIG. 1. Only IL-2 and IL-21 were used in the rest of the experiments) for at least 3 days before acquisition of eGFP expression was carried out. In indicated experiments, the following inhibitors were present during the transduction: BX795 (Invivogen) and (5Z)-7-Oxozeaenol (iX) (Tocris).
For the transduction of cell lines, 2×10^5 cells per well were seeded into 24-well plates. Treatment with 6 μM BX795 and (5Z)-7-Oxozeaenol (iX) was initiated simultaneously with the transduction process. Appropriate amount of viral supernatants were added into the wells along with protamine sulfate (NK92, cells) and the total volume was adjusted to 500 μl. The plates were centrifuged at 1000×g for 1 hour followed by incubation at 37° C., 5% CO2 for 4-6 hours, after which the virus containing supernatant was removed and fresh growth media was added. The cells were grown for at least 3 days before acquisition of eGFP expression was carried out.
All antibody stainings for flow cytometry were done according to the following protocol: For surface stainings, the cells were washed once with PBS and incubated with appropriate amounts of antibody at 4° C. for 30 min. The labeled cells were then washed with PBS and fixed in 1% PFA prior to data acquisition. Data acquisition was done on a FACSCalibur (BD Biosciences), CyFlow ML (Partec GmbH, Munster, Germany) and LSRII-Fortessa (BD Biosciences) with standard filters. Data were analysed with the FlowJo software (TreeStar Inc.). […]
(In general: Flow cytometry measures light scatter and fluorescence of single cells or particles in a stream.)

Data set [4] deals with NK-92 cells. The data set is described as follows: Gene expression profiling by RNAseq during lentiviral transduction. It counts as cell-based, human. The conditions noted are these: end of 6 hour transduction, FIGS. 6A-H. Here is the method:
Gene expression profiling by RNAseq for identification of pathways triggered by lentivirus entry in the absence and presence of small molecule inhibitors are assessed. NK-92 cells are transduced as previously described. At the end of the 6 hour transduction protocol, RNA from the cells is extracted and sequenced on a HiSeq 2500 instrument. After quality control, the reads are mapped to the human genome using the STAR aligner and gene abundance is estimated with HT-Seq. Differential expression is analyzed using DeSeq software. […] (FIG. 5).

Data set [5] deals with RIG-I. The data set is described as follows: RIG-I expression at protein level during lentiviral transduction. In kind it is cell-based. The conditions noted are these: for change in RIG-I expression at the protein level: after the 6 hour transduction period; for change in RIG-I expression: at 24 hours, FIG. 3.
Description: as §1

Data set [6] concerns NK92 cells. The data set is described as follows: IFNγ secretion upon exposure to lentiviral particles. In kind it is cell-based, human. The conditions noted are these: FIG. 4. From the text: FIG. 4 contains two bar graphs showing that iX treatment interferes with anti-viral cytokines IFNγ and TNF secretion.
(FIG. 4). […] (FIG. 4). […] (FIG. 4).

The test system of data set [7] is NK cells. Put plainly: Annexin-V/PI staining for toxicity. In kind it is cell-based. The following applies: for toxicity on NK cells (apoptotic and dead cells) compared to DMSO controls: 1.5 μM; for toxicity on NK cells (apoptotic and dead cells): 6 μM. From the text:
FIG. 2B contains two bar graphs comparing apoptotic to dead Annexin −V^+/PI^−cells.
Remarkably, the use of iX at the optimum concentration presents no immediate toxic effects on NK cells as determined by Annexin-V/PI staining after […] treatment (FIG. 2b).

Data set [8] relates to CD34+ HSCs. Put plainly: CRISPR/Cas9 gene editing of Beta 2 Microglobulin, loss of B2M expression by flow cytometry. It counts as cell-based, human. The following applies: 1 μM iX, hematopoietic stem cells, FIG. 7, n=4. From the text:
(§2) The recent emergence of the clustered, regularly interspaced, palindromic repeats (CRISPR) system for gene editing has the potential to overcome these limitations. The CRISPR technology utilizes a fixed nuclease, often the CRISPR-associated protein 9 (Cas9) from Streptococcus pyogenes, in combination with a short guide RNA (gRNA) to target the nuclease to a specific DNA sequence. We confirmed that gRNA recognition and thus editing efficacy could be increased with introduction of iX inhibitor. […]
(§3) The following commercially available guide RNAs from Origene Technologies were tested against Beta 2 Microglobulin: […] […] 48 hours post-transfection, cells were stained with anti-B2M antibody (clone:2M2, Biolegend) to compare loss of (32 m expression. Cells were then analysed using flowcytometry as described below.
(§4) All antibody stainings for flow cytometry were done according to the following protocol: For surface stainings, the cells were washed once with PBS and incubated with appropriate amounts of antibody at 4° C. for 30 min. […] Data were analysed with the FlowJo software (TreeStar Inc.). […]

The test system of data set [9] is NK92 cell line. The data set is described as above. It counts as cell-based, human. The conditions noted are these: 1 μM iX, NK cells (NK92), FIG. 7, n=4.
Description: as §2, §3, §4

The test system of data set [10] is primary human NK cells. Put plainly: Lentiviral transduction (LeGO-G2, GFP expression) of primary NK cells. It counts as cell-based. The conditions noted are these: 6 μM during lentiviral transduction, FIG. 1. Here is the method:
(§5) FIG. 1 contains two bar graphs showing the inhibition of innate immune signaling with iX enhances lentiviral transduction efficiency in NK cells. NK-92 cells and primary human NK cells isolated from healthy donor PBMCs were subjected to lentiviral transduction in the presence of 6 μM BX795 or iX for 6 hours. GFP expression is acquired 72 hours later. +cell percentages are shown on graph.
[…]. Next day cells were transfected with 30 μg of LeGO-G2 plasmid (courtesy of Prof. Boris Fehse, University Medical Center Hamburg-Eppendorf, Hamburg, Germany), 15 μg of pMDLg/pRRE (Addgene, Cambridge, Mass., USA), 10 μg of pRSV-REV (Addgene) and 5 μg of phCMV-VSV-G (Addgene) using calcium phosphate transfection kit (Sigma-Aldrich) in the presence of 25 μM Chloroquine (Sigma-Aldrich). […]
The peripheral blood mononuclear cells (PBMCs) were isolated by gradient centrifugation, using Lymphoprep (Nyegaard, Oslo, Norway) and washed twice with phosphate-buffered saline (PBS) (GIBCO, Grand Island, N.Y., USA). Cell count and viability were assessed by Turk and Trypan Blue dye exclusion. […]
as §4

For data set [11], the system named is Human primary macrophages. Put plainly: CRISPR/Cas9 gene editing of Beta 2 Microglobulin, loss of B2M expression by flow cytometry. It counts as cell-based. The conditions noted are these: 1 μM iX, FIG. 7, n=4.
Description: as §2, §3, §4

The subject of data set [12] is NK-92 cells. Put plainly: Lentiviral transduction (GFP expression) of NK-92 cell line. It counts as cell-based, human. The conditions noted are these: 6 μM during lentiviral transduction, NK-92, FIG. 1. As for the experimental part:
as §5
[…]. Next day cells were transfected with 30 μg of LeGO-G2 plasmid (courtesy of Prof. Boris Fehse, University Medical Center Hamburg-Eppendorf, Hamburg, Germany), 15 μg of pMDLg/pRRE (Addgene, Cambridge, Mass., USA), 10 μg of pRSV-REV (Addgene) and 5 μg of phCMV-VSV-G (Addgene) using calcium phosphate transfection kit (Sigma-Aldrich) in the presence of 25 μM Chloroquine (Sigma-Aldrich). 10 hours after transfection, the medium was changed and thereafter virus containing supernatant was collected every 24 hours for 2-3 days and stored in −80° C. until further use. A small aliquot from each production was used to determine viral titers by transduction of 293FT cells with serially diluted amounts of virus supernatant. […]
as §4

Consider two compounds from US12533338B2, “Enhanced gene delivery to natural killer cells, hematopoietic stem cells and macrophages” (priority 2015, dated 2026).

“Also recorded” adds a separate entry of the source. Like-named read-outs stand apart in the source and are kept apart here.

As to `O=C(NCCCNc1nc(Nc2cccc(NC(=O)N3CCCC3)c2)ncc1I)c1cccs1` [BX795], in data set [1], the “change in IRF3 expression at the protein level” value was “not detectable” and the “change in IRF3 expression” value is listed as “significant decrease”. Further, the “transduction efficiency in NK cells” value in data set [2] (previously reported (Sutlu et al., 2012)) was “dramatically increases”. Also, the “effect of concentration on genetic modification efficiency” value in [2] (shown previously) is given as “dose-dependent effect”. Besides, in data set [3] (NK cells), the “optimum dose for lentiviral gene delivery” value came to 6 µM. The “effect on anti-viral response pathways at mRNA level” value in data set [4] is “failed to fully suppress similar anti-viral responses”. In data set [5], the “change in RIG-I expression at the protein level” value is “not detectable” and the “change in RIG-I expression” value is “significant decrease”. Also, the “secretion of IFNγ” value in data set [6] (24 hours after exposure to lentiviral particles) was “significantly trigger similar effect”. In data set [7], the “toxicity on NK cells (apoptotic and dead cells) compared to DMSO controls” value was “no toxicity”; the “toxicity on NK cells (apoptotic and dead cells)” value was “quite small but statistically significant increase”.
Take `COc1cc(O)c2c(c1)/C=C/C[C@H](O)[C@H](O)C(=O)/C=C\C[C@H](C)OC2=O` [iX, (5Z)-7-Oxozeaenol]: the “β2M gene editing efficacy” value in data set [8] was “increased (32M editing significantly”. Further, the “β2M gene editing efficacy” value in [9] is “increased (32M editing significantly”. Besides, in data set [1], the “extent of downregulation in IRF3 compared to BX795” value is on record as “significantly more”, the “change in IRF3 expression at the protein level” value is recorded as “not detectable” and the “change in IRF3 expression” value is given as “significant decrease”. Moreover, in data set [3] (NK cells), the “enhancement of lentiviral gene delivery compared to BX795” value is given as “to a further extent; also recorded: significantly higher extent” and the “optimum dose for lentiviral gene delivery” value turned out to be 1.5 µM. The “effect of concentration on genetic modification efficiency” value in data set [3] (varying doses, FIG. 2A) is recorded as “dose-dependent effect”. The “improvement in lentiviral gene delivery” value in [10] was “statistically significant improvement”. The “β2M gene editing efficacy” value in data set [11] is listed as “increased (32M editing significantly”. For the same compound, in [4], the “effect on anti-viral response pathways at mRNA level” value is listed as “affected pathways associated with anti-viral responses”. Besides, in [5], the “extent of downregulation in RIG-I compared to BX795” value is recorded as “significantly more”, the “change in RIG-I expression at the protein level” value is reported as “not detectable” and the “change in RIG-I expression” value is “significant decrease”. Moreover, in data set [12], the “improvement in lentiviral gene delivery” value is “statistically significant improvement”. Also, the “secretion of IFNγ” value in data set [6] (six hours, during lentiviral gene delivery) is reported as “significantly decreased”. For the same compound, in data set [7], the “toxicity on NK cells (apoptotic and dead cells) compared to DMSO controls” value is listed as “no significant toxicity”; the “toxicity on NK cells (apoptotic and dead cells)” value is on record as “no signs of immediate toxicity”.
